Molecules are shown by their SMILES.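 Assay format: 96-well plates, 48-hour exposure. GI50 marks 50% less growth.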 Activity calls are given as the source filed them. No stated cut-off is given here; in the data, active = GI50 up to about 1.1 µM and inactive = higher.

Among the test systems are A498; ACHN; EKVX; HCT-15; HL-60; HOP-92; IGROV-1; K562; LOX IMVI; MCF7; MDA-N; MOLT-4; NCI-H522; OVCAR-3; PC-3; SF-539; SK-OV-3; SNB-19; T47D; TK-10.
Common to all, as to test: DTP human tumour cell line panel, 48 h

On to `C[C@@H](C[C@H]1OC(C)(C)O[C@@H]1C(C)(C)O)[C@H]1CC=C2[C@]3(C)[C@H](O)C[C@H]4C(C)(C)[C@H](O)CC[C@]4(C)[C@H]3CC[C@]21C`, for which the GI50 with A498 is 10.7 µM (inactive); with ACHN, 8.15 µM (inactive); in the test with EKVX it was 9.98 µM (inactive); with HCT-15, 6.03 µM; in the test on HL-60 it was 2.62 µM (inactive); in the test with HOP-92, 6.21 µM (inactive). For the same molecule, the GI50 in the test with IGROV-1 is 11.9 µM (inactive); with K562, 3.99 µM (inactive); in the test with LOX IMVI, 8.13 µM (inactive); in the test on MCF7, 2.12 µM (inactive); with MDA-N, 8.85 µM (inactive); in the test on MOLT-4 it was 4.52 µM (inactive). Also, the GI50 with NCI-H522 is 8.24 µM (inactive); in the test on OVCAR-3 it was 7.91 µM (inactive); in the test with PC-3 it was 5.05 µM (inactive); with SF-539, 11.9 µM (inactive); with SK-OV-3, 12.5 µM (inactive); in the test on SNB-19, 10.7 µM (inactive). Also, the figures for the GI50 in the test on T47D and in the test with TK-10 were 7.73 µM (inactive) and 11.7 µM (inactive), respectively.

For `Cc1cc(C)c2c(c1)CC1(Cc3c(ccc(C)c3C)C1=O)C2=O` (stereo not drawn), the GI50 in the test on A498 is > 100 µM (inactive); in the test on ACHN, > 100 µM (inactive); in the test on EKVX it was > 100 µM (inactive); with HCT-15 it was greater than 100 µM; in the test on HL-60, > 100 µM (inactive); in the test with HOP-92 it was > 100 µM (inactive). The GI50 in the test with IGROV-1, with K562, with MCF7, in the test on MDA-N, in the test with MOLT-4 and with NCI-H522 was > 100 µM (inactive) each time. Besides, the GI50 in the test on OVCAR-3, in the test with PC-3, with SF-539, in the test on SK-OV-3, in the test with SNB-19 and with T47D was > 100 µM (inactive) throughout. Further, the GI50 with TK-10 is > 100 µM (inactive).

With `C=C[C@H]1CN2CCc3c([nH]c4c([C@@H]5CCCN5C)c(O)ccc34)[C@@H]2C[C@@H]1C[C@H]1c2[nH]c3ccccc3c2CCN1C`, the GI50 is 1.85 µM (inactive) in the test on A498; 1.65 µM (inactive) in the test with ACHN; 1.28 µM with HCT-15; 0.524 µM (active) in the test on HL-60; 1.4 µM (inactive) in the test on HOP-92; 1.32 µM (inactive) with IGROV-1. The GI50 was 0.211 µM (active) in the test with K562; 1.39 µM (inactive) with LOX IMVI; 1.96 µM (inactive) in the test on MCF7; 1.67 µM (inactive) in the test on MDA-N; 0.692 µM (active) in the test with MOLT-4; 1.85 µM (inactive) with NCI-H522. In addition, the GI50 is 1.64 µM (inactive) in the test with OVCAR-3; 1.47 µM (inactive) in the test with PC-3; 1.64 µM (inactive) in the test with SF-539; 1.7 µM (inactive) in the test with SK-OV-3; 1.64 µM (inactive) in the test on SNB-19; 1.95 µM (inactive) in the test with T47D. In addition, the GI50 in the test on TK-10 was 1.57 µM (inactive).

For the molecule `O=[N+]([O-])c1cccnc1NCC1(CO)CC(Cc2ccccc2)C1` (stereo not drawn), the GI50 in the test with A498 is > 100 µM (inactive); in the test on ACHN, > 100 µM (inactive); in the test with EKVX, 77.6 µM (inactive); in the test on HCT-15 it was greater than 100 µM; in the test on HL-60, > 100 µM (inactive); in the test on HOP-92 it was 11.1 µM (inactive). Further, the GI50 in the test with IGROV-1, in the test with K562, in the test on LOX IMVI, in the test with MCF7, in the test on MDA-N and in the test on MOLT-4 was > 100 µM (inactive) each time. The GI50 in the test on NCI-H522, with OVCAR-3, in the test with PC-3, in the test on SF-539, with SK-OV-3 and in the test on T47D was > 100 µM (inactive) in each case. Besides, in the test with TK-10, the GI50 is > 100 µM (inactive).

Consider `CCN(CC)CCOc1ccc(N2C(=O)c3cccc4cc([N+](=O)[O-])cc(c34)C2=O)cc1`, for which the GI50 with A498 is 9.62 µM (inactive); in the test with ACHN it was 3.1 µM (inactive); in the test with EKVX, 16.3 µM (inactive); in the test on HCT-15 it was 6.64 µM; in the test with HL-60, 11.8 µM (inactive); with HOP-92 it was 20 µM (inactive). Also, the GI50 with IGROV-1 is 7.08 µM (inactive); in the test with LOX IMVI, 3.88 µM (inactive); with MCF7 it was 3.56 µM (inactive); with MDA-N, 14.6 µM (inactive); with MOLT-4 it was 1.67 µM (inactive); with NCI-H522, 4.75 µM (inactive). The GI50 is 6.73 µM (inactive) with PC-3; 9.02 µM (inactive) in the test on SF-539; 12.8 µM (inactive) with SNB-19; 19.7 µM (inactive) in the test on T47D; 13.3 µM (inactive) in the test on TK-10.

Consider `CCCCCCCCCCCC[C@@H](O)[C@H]1CC[C@H]([C@H](O)CC[C@H](O)[C@@H]2CC[C@@H](CCCCCCCC3=C[C@H](C)OC3=O)O2)O1`, for which the GI50 in the test with A498 is > 50 µM (inactive); in the test on ACHN, > 50 µM (inactive); in the test with EKVX, > 50 µM (inactive); with HCT-15 it was greater than 50 µM; in the test on HL-60 it was 1.74 µM (inactive); with HOP-92, > 50 µM (inactive). Further, the GI50 in the test with IGROV-1 was > 50 µM (inactive); in the test with LOX IMVI, > 27.2 µM (inactive); in the test on MCF7, > 50 µM (inactive); in the test on MDA-N, 6.47 µM (inactive); in the test on MOLT-4, > 15.2 µM (inactive); in the test with NCI-H522, 46.8 µM (inactive). For the same molecule, the GI50 in the test on OVCAR-3, with PC-3, with SF-539, with SK-OV-3, in the test with SNB-19 and in the test on T47D was > 50 µM (inactive) in each case. The GI50 in the test on TK-10 is > 50 µM (inactive).

Take `CC1=NN(c2cccc(Cl)c2)C2(C1)C(Cl)C(=O)N2c1nc2ccccc2s1` (stereo not drawn): the GI50 in the test on A498 is 35.9 µM (inactive); in the test on ACHN, 32.7 µM (inactive); in the test with EKVX, 45.5 µM (inactive); with HCT-15 it was 28.8 µM; in the test with HL-60, 23.3 µM (inactive); in the test on HOP-92, 25.3 µM (inactive). In addition, the GI50 with IGROV-1 was 21.8 µM (inactive); in the test with K562, 16.2 µM (inactive); in the test with LOX IMVI it was 18.7 µM (inactive); in the test on MCF7 it was 32.1 µM (inactive); in the test with MDA-N, 29.2 µM (inactive); with MOLT-4, 14.5 µM (inactive). Also, the GI50 is 21.8 µM (inactive) in the test with NCI-H522; 20.5 µM (inactive) in the test on OVCAR-3; 22.6 µM (inactive) in the test with PC-3; 28 µM (inactive) in the test with SK-OV-3; 28.6 µM (inactive) in the test with SNB-19; 26.2 µM (inactive) in the test with T47D. In addition, in the test on TK-10, the GI50 was 90.2 µM (inactive).

Consider `C[C@]12CC/C(=N\O)C=C1CC[C@@H]1[C@@H]2CC[C@]2(C)C(=N/O)/C(=C/c3ccc([N+](=O)[O-])cc3)C[C@@H]12`, for which the GI50 is 13 µM (inactive) in the test with A498; 5.21 µM (inactive) with ACHN; 3.44 µM in the test on HCT-15; 1.85 µM (inactive) in the test with HL-60; 3.3 µM (inactive) in the test on HOP-92; 2.86 µM (inactive) in the test on IGROV-1. Also, the GI50 with K562 is 3.37 µM (inactive); with LOX IMVI, 5.11 µM (inactive); with MCF7, 3.59 µM (inactive); with MDA-N, 4.03 µM (inactive); in the test with MOLT-4 it was 2.55 µM (inactive); in the test with NCI-H522, 2.59 µM (inactive). The GI50 is 2.61 µM (inactive) with OVCAR-3; 4.8 µM (inactive) with PC-3; 10.4 µM (inactive) in the test with SF-539; 15.5 µM (inactive) in the test on SK-OV-3; 7.5 µM (inactive) in the test on SNB-19; 1.05 µM (active) in the test on T47D. The GI50 in the test on TK-10 is 6.41 µM (inactive).

As for `OC1c2ccccc2C(O)C2OC12` (stereo not drawn), the GI50 was > 100 µM (inactive) in the test on A498; > 100 µM (inactive) with ACHN; greater than 100 µM with HCT-15; > 100 µM (inactive) in the test on HL-60; > 100 µM (inactive) in the test with HOP-92; > 100 µM (inactive) with IGROV-1. For the same molecule, the GI50 in the test with K562, in the test with LOX IMVI, with MCF7, in the test on MDA-N, in the test with MOLT-4 and with NCI-H522 was > 100 µM (inactive) each time. The GI50 with OVCAR-3, in the test with PC-3, with SF-539, in the test on SK-OV-3, in the test on SNB-19 and in the test with T47D was > 100 µM (inactive) each time. Besides, the GI50 in the test with TK-10 was > 100 µM (inactive).

With `CS(=O)(=O)OCC1CN(S(C)(=O)=O)c2cc(O)ccc21` (stereo not drawn), the GI50 in the test on A498 is 2.64 µM (inactive); with ACHN, 3.18 µM (inactive); in the test on EKVX, 4.37 µM (inactive); with HCT-15, 3.1 µM; with HL-60, 1.87 µM (inactive); with HOP-92, 3.09 µM (inactive). The GI50 with IGROV-1 is 3.85 µM (inactive); with K562 it was 2.43 µM (inactive); with LOX IMVI, 3.17 µM (inactive); in the test with MCF7, 1.53 µM (inactive); with MDA-N, 1.91 µM (inactive); in the test on MOLT-4, 1.22 µM (inactive). For the same molecule, the GI50 with NCI-H522 is 1.11 µM (active); with OVCAR-3 it was 2.82 µM (inactive); in the test with PC-3 it was 2.09 µM (inactive); in the test with SF-539 it was 2.42 µM (inactive); with T47D, 0.498 µM (active); in the test on TK-10, 2.37 µM (inactive).

Source of the values: ChEMBL document CHEMBL1201862, “PubChem BioAssay data set” (2004).
